# Read-outs that look alike come from different tables or passages of the source.
# Test system: HIV-1 (H9/IIIB strain)
# Assay: Multiple round HIV-1 infection assay (Viking assay) in MT4-GFP cells
# Format: cell-based
# Conditions: MT4-GFP cells infected with HIV-1 H9/IIIB, inhibition of reproductive ratio R0
# Experimental: Assessing Antiviral Potency in a Multiple Round HIV-1 Infection Assay (Viking Assay)
# The antiviral activity of the tenofovir prodrugs of the Examples herein was assessed in an assay that measures the rate of replication of HIV in cell culture, termed the Viking assay (Viral KINetics in Green cells) and performed as follows. HIV-1 replication was monitored using MT4-gag-GFP clone D3 (hereafter designated MT4-GFP), which are MT-4 cells modified to harbor a GFP reporter gene, the expression of which is dependent on the HIV-1 expressed proteins tat and rev. Productive infection of an MT4-GFP cell with HIV-1 results in GFP expression approximately 24 h post-infection. MT4-GFP cells were maintained at 37° C./5% CO2/90% relative humidity in RPMI 1640 supplemented with 10% fetal bovine serum, 100 μ/ml penicillin/streptomycin, and 400 μg/ml G418 to maintain the reporter gene. For infections, MT4-GFP cells were placed in the same medium lacking G418 and infected overnight with HIV-1 (H9/IIIB strain) virus at an approximate multiplicity of infection of 0.01 in the same incubation conditions. Cells were then washed and re-suspended in either RPMI 1640 supplemented with 10% or 50% normal human serum (NFIS) at 1.6×10^5 cells/mL (10% NHS or 50% NHS, respectively). Compound plates were prepared by dispensing compounds dissolved in DMSO into wells of 384 well poly-D -lysine-coated plates (0.2 μl/well) using an ECHO acoustic dispenser. Each compound was tested in a 10-point serial 3-fold dilution (typical final concentrations: 8.4 μM-0.42 nM). Controls included no inhibitor (DMSO only) and a combination of three antiviral agents (efavirenz, indinavir, an in-house integrase strand transfer inhibitor at final concentrations of 4 μM each). Cells were added (50 μL/well) to compound plates and the infected cells were maintained at 37° C./5% CO2/90% relative humidity.
# infected cells were quantified at two time points, ˜48 h and ˜72 h post -infection, by counting the number of green cells in each well using an Acumen eX3 scanner. The increase in the number of green cells over ˜24 h period gives the reproductive ratio, R0, which is typically 5-15 and has been shown experimentally to be in logarithmic phase (data not shown). Inhibition of R0 is calculated for each well, and IC50s determined by non-linear 4-parameter curve fitting.
# [1] = Human immunodeficiency virus 1, IIIB, 10% normal human serum, read-out: Viking, IC50 (10% NHS)
# [2] = Human immunodeficiency virus 1, IIIB, 50% normal human serum, read-out: Viking, IC50 (50% NHS)
# [3] = 10% normal human serum, read-out: Viking, IC50 (10% NHS)
# [4] = 50% normal human serum, read-out: Viking, IC50 (50% NHS)
SMILES,IC50 [1] [nM],IC50 [2] [nM],IC50 [3] [nM],IC50 [4] [nM]
"CCOC(=O)[C@H](C)OP(=O)(CO[C@H](C)Cn1cnc2c(N)ncnc21)NC(C)(C)C(=O)OC(C)C (stereo partly drawn) [Example 40, Isopropyl 2-((((((R)-1-(6-amino-9H-purin-9-yl)propan-2-yl)oxy)methyl)(((S)-1-ethoxy-1-oxopropan-2-yl)oxy)phosphoryl)amino)-2-methylpropanoate]",19.2,58.7,–,–
CCCCCCOC(=O)C(C)(C)NP(=O)(CO[C@H](C)Cn1cnc2c(N)ncnc21)OCC(=O)OC1CCCC1 (stereo partly drawn) [Example 35],3.83,14,–,–
"CC(C)OC(=O)[C@H](C)OP(=O)(CO[C@H](C)Cn1cnc2c(N)ncnc21)NC1(C(=O)OC(C)C)CCCCC1 (stereo partly drawn) [Example 52, Isopropyl 1-((((((R)-1-(6-amino-9H-purin-9-yl)propan-2-yl)oxy)methyl)(((S)-1-isopropoxy-1-oxopropan-2-yl)oxy)phosphoryl)amino)cyclo-hexane-1-carboxylate]",10.8,45.6,–,–
"CC(C)COC(=O)C(C)(C)NP(=O)(CO[C@H](C)Cn1cnc2c(N)ncnc21)OCC(=O)OC(C)C (stereo partly drawn) [Example 30, Isobutyl 2-((((((R)-1-(6-amino-9H-purin-9-yl)propan-2-yl)oxy)methyl)(2-isopropoxy-2-oxoethoxy)phosphoryl)amino)-2-methylpropanoate]",4.38,12,–,–
"CCCCCOC(=O)[C@H](C)OP(=O)(CO[C@H](C)Cn1cnc2c(N)ncnc21)NC(C)(C)C(=O)OC(C)C (single isomer, unassigned) [Example 10B]",–,–,85.6,357
"CCCCCOC(=O)[C@H](C)OP(=O)(CO[C@H](C)Cn1cnc2c(N)ncnc21)NC(C)(C)C(=O)OC(C)C (single isomer, unassigned) [Example 10A]",–,–,26.3,142
"CC(C)OC(=O)COP(=O)(CO[C@H](C)Cn1cnc2c(N)ncnc21)NC(C)(C)C(=O)OC1CCCCC1 (single isomer, unassigned) [Example 15B]",–,–,10.3,44.2
"CC(C)OC(=O)[C@H](C)OP(=O)(CO[C@H](C)Cn1cnc2c(N)ncnc21)NC(C)(C)C(=O)OC1CCCC1 (stereo partly drawn) [Example 39, Cyclopentyl 2-((((((R)-1-(6-amino-9H-purin-9-yl)propan-2-yl)oxy)methyl)(((S)-1-isopropoxy-1-oxopropan-2-yl)oxy)phosphoryl)amino)-2-methylpropanoate]",3.43,12.6,–,–
"CCCCCCOC(=O)C(C)(C)NP(=O)(CO[C@H](C)Cn1cnc2c(N)ncnc21)O[C@@H](C)C(=O)OC1CCCC1 (stereo partly drawn) [Example 34, Hexyl 2-((((((R)-1-(6-amino-9H-purin-9-yl)propan-2-yl)oxy)methyl)(((S)-1-(cyclopentyloxy)-1-oxopropan-2-yl)oxy)phosphoryl)amino)-2-methylpropanoate]",3.57,12.9,–,–
"CC(C)OC(=O)[C@H](Cc1ccccc1)OP(=O)(CO[C@H](C)Cn1cnc2c(N)ncnc21)NC(C)(C)C(=O)OC(C)C (stereo partly drawn) [Example 32, Isopropyl 2-((((((R)-1-(6-amino-9H-purin-9-yl)propan-2-yl)oxy)methyl)(((S)-1-isopropoxy-1-oxo-3-phenylpropan-2-yl)oxy)phosphoryl)amino)-2-methylpropanoate]",3.34,23.2,–,–
"CCCCCCOC(=O)C(C)(C)NP(=O)(CO[C@H](C)Cn1cnc2c(N)ncnc21)O[C@H](C)C(=O)OC(C)C (single isomer, unassigned) [Example 9A]",–,–,4.2,26.1
"CC(C)OC(=O)COP(=O)(CO[C@H](C)Cn1cnc2c(N)ncnc21)NC(C)(C)C(=O)OC1CCCC1 (single isomer, unassigned) [Example 14B]",–,–,5.4,36.2
"CC(C)OC(=O)[C@H](C)OP(=O)(CO[C@H](C)Cn1cnc2c(N)ncnc21)NC(C)(C)C(=O)OC1CCC1 (single isomer, unassigned) [Example 16A]",2.61,–,–,7.5
"CCOC(=O)C(C)(C)NP(=O)(CO[C@H](C)Cn1cnc2c(N)ncnc21)O[C@H](C)C(=O)OC(C)C (stereo partly drawn) [Example 29, Ethyl 2-((((((R)-1-(6-amino-9H-purin-9-yl)propan-2-yl)oxy)methyl)(((R)-1-isopropoxy-1-oxopropan-2-yl)oxy)phosphoryl)amino)-2-methylpropanoate]",9.22,17.2,–,–
"CC(C)OC(=O)[C@H](C)OP(=O)(CO[C@H](C)Cn1cnc2c(N)ncnc21)NC1(C(=O)OC(C)C)CCC1 (stereo partly drawn) [Example 50, Isopropyl 1-((((((R)-1-(6-amino-9H-purin-9-yl)propan-2-yl)oxy)methyl)(((S)-1-isopropoxy-1-oxopropan-2-yl)oxy)phosphoryl)amino)cyclo-butane-1-carboxylate]",8.66,34.3,–,–
"CC(C)COC(=O)C(C)(C)NP(=O)(CO[C@H](C)Cn1cnc2c(N)ncnc21)O[C@@H](C)C(=O)OC1CCCC1 (stereo partly drawn) [Example 37, Isobutyl 2-((((((R)-1-(6-amino-9H-purin-9-yl)propan-2-yl)oxy)methyl)(((S)-1-(cyclopentyloxy)-1-oxopropan-2-yl)oxy)phosphoryl)amino)-2-methylpropanoate]",10.3,63.1,–,–
"CC(C)OC(=O)COP(=O)(CO[C@H](C)Cn1cnc2c(N)ncnc21)NC(C)(C)C(=O)OC1CCC1 (single isomer, unassigned) [Example 17A]",6.39,12.7,–,–
"CCOC(=O)C(C)(C)NP(=O)(CO[C@H](C)Cn1cnc2c(N)ncnc21)O[C@@H](C)C(=O)OC(C)C (stereo partly drawn) [Example 28, Ethyl 2-((((((R)-1-(6-amino-9H-purin-9-yl)propan-2-yl)oxy)methyl)(((S)-1-isopropoxy-1-oxopropan-2-yl)oxy)phosphoryl)amino)-2-methylpropanoate]",6.38,19.7,–,–
"C[C@H](Cn1cnc2c(N)ncnc21)OCP(=O)(NC(C)(C)C(=O)OC1CCCC1)O[C@@H](C)C(=O)OC1CCCC1 (single isomer, unassigned) [Example 5B]",–,–,5.73,23.4
"CC(C)OC(=O)[C@H](C)OP(=O)(CO[C@H](C)Cn1cnc2c(N)ncnc21)NC1(C(=O)OC(C)C)CCCC1 (stereo partly drawn) [Example 48, Isopropyl 1-((((((R)-1-(6-amino-9H-purin-9-yl)propan-2-yl)oxy)methyl)(((S)-1-isopropoxy-1-oxopropan-2-yl)oxy)phosphoryl)amino)cyclo-pentane-1-carboxylate]",13.3,37.3,–,–
"CCCCOC(=O)C(C)(C)NP(=O)(CO[C@H](C)Cn1cnc2c(N)ncnc21)O[C@@H](C)C(=O)OC1CCCC1 (single isomer, unassigned) [Example 11B]",–,–,3.98,22.8
"CCCCOC(=O)C(C)(C)NP(=O)(CO[C@H](C)Cn1cnc2c(N)ncnc21)O[C@@H](C)C(=O)OC1CCCC1 (single isomer, unassigned) [Example 11A]",–,–,24.8,66.2
"CCCCCCOC(=O)C(C)(C)NP(=O)(CO[C@H](C)Cn1cnc2c(N)ncnc21)OC(C)(C)C(=O)OC(C)C (stereo partly drawn) [Example 44, Hexyl 2-((((((R)-1-(6-amino-9H-purin-9-yl)propan-2-yl)oxy)methyl)((1-isopropoxy-2-methyl-1-oxopropan-2-yl)oxy)phosphoryl)amino)-2-methylpropanoate]",1.42,1.81,–,–
"CC(C)OC(=O)[C@H](C)OP(=O)(CO[C@H](C)Cn1cnc2c(N)ncnc21)NC(C)(C)C(=O)OC1CCCCC1 (single isomer, unassigned) [Example 12B]",–,–,6.07,13.5
"C[C@H](Cn1cnc2c(N)ncnc21)OCP(=O)(NC(C)(C)C(=O)OC1CCCC1)O[C@@H](C)C(=O)OC1CCCC1 (single isomer, unassigned) [Example 5A]",5.71,45,–,–
"CCCCCOC(=O)C(C)(C)NP(=O)(CO[C@H](C)Cn1cnc2c(N)ncnc21)O[C@@H](C)C(=O)OC1CCCC1 (single isomer, unassigned) [Example 19A]",–,–,14,49.7
"CC(C)OC(=O)COP(=O)(CO[C@H](C)Cn1cnc2c(N)ncnc21)NC(C)(C)C(=O)OC1CCCCC1 (single isomer, unassigned) [Example 15A]",9.98,28.5,–,–
